Legend:
sugarcane = experiment: Test F pre-/postemergence test; format: in vivo, Saccharum officinarum; details: for Sugarcane plant response rating: postemergence
Description: Seeds of plant species selected from bermudagrass (Cynodon dactylon), Surinam grass (Brachiaria decumbens), large crabgrass (Digitaria sanguinalis), green foxtail (Setaria viridis), goosegrass (Eleusine indica), johnsongrass (Sorghum halepense), kochia (Kochia scoparia), pitted morningglory (Ipomoea lacunosa), purple nutsedge (Cyperus rotundus), common ragweed (Ambrosia elation), mustard (Brassica nigra), guineagrass (Panicum maximum), […] (Paspalum dilatatum), barnyardgrass (Echinochloa crus-galli), southern sandbur (Cenchrus echinatus), common sowthistle (Sonchus oleraceous), prickly […] spinosa), Italian ryegrass (Lolium multiflorum), common purslane (Portulaca oleracea), broadleaf signalgrass (Brachiaria platyphylla), common groundsel (Senecio vulgaris), common chickweed (Stellaria media), Virginia dayflower (Commelina virginica), annual bluegrass (Poa annua), naked crabgrass (Digitaria nuda), […] cochinchinensis), quackgrass (Elytrigia repens), Canada horseweed (Conyza canadensis), field bindweed (Convolvulus arvensis), […] (Bidens bipinnata), common mallow (Malva sylvestris), Russian thistle (Salsola kali), and sugarcane (Saccharum officinarum) were planted and treated preemergence with test chemicals formulated in a non-phytotoxic solvent mixture which included a surfactant. At a different time, sugarcane was treated with postemergence applications of some of the test chemicals formulated in the same manner. Plants were approximately 3- to 4-leaf stage for the postemergence treatments. Treated plants and controls were maintained in a greenhouse for 14 to 21 days, after which time all species were compared to controls and visually evaluated. […] A dash (-) response means no test result.

ducksalad = experiment: Test E flooded paddy test; format: in vivo, Heteranthera limosa; details: Flood, after 21 days, scale 0 to 100
Description: (§1) Three plastic pots (ca. 16-cm diameter) per rate were partially filled with sterilized Tama silt loam soil comprising a 35:50:15 ratio of sand, silt and clay and 2.6% organic matter. Separate plantings for each of the three pots were as follows. Seeds from the U.S. of ducksalad (Heteranthera limosa), smallflower umbrella sedge (Cyperus difformis) and purple […] coccinea), were planted into one 16-cm pot for each rate. […] Seeds from the U.S. of barnyardgrass (Echinochloa crus-galli), late watergrass (Echinochloa oryzicola), early watergrass (Echinochloa oryzoides) and junglerice (Echinochloa colona) were planted into one 16-cm pot for each rate. Plantings were sequential so that crop and weed species were at the 2.0 to 2.5-leaf stage at time of treatment. Potted plants were grown in a greenhouse with day/night temperature settings of 30/27° C., and supplemental balanced lighting was provided to maintain a 16-hour photoperiod. Test pots were maintained in the greenhouse until test completion. At time of treatment, test pots were flooded to 3 cm above the soil surface, treated by application of test compounds directly to the paddy water, and then maintained at that water depth for the duration of the test. Effects of treatments on rice and weeds were visually evaluated by comparison to untreated controls after 21 days. […] A dash (-) response means no test result.

[1] = tested on: smallflower umbrella sedge; experiment: Test E flooded paddy test; format: in vivo, Cyperus difformis; details: Flood, after 21 days, scale 0 to 100
Description: as §1

purple redstem = experiment: Test E flooded paddy test; format: in vivo, Ammannia coccinea; details: Flood, after 21 days, scale 0 to 100
Description: as §1

rice flatsedge = experiment: Test E flooded paddy test; format: in vivo, Cyperus iria; details: Flood, after 21 days, scale 0 to 100
Description: as §1

bearded sprangletop = experiment: Test E flooded paddy test; format: in vivo, Leptochloa fascicularis; details: Flood, after 21 days, scale 0 to 100
Description: as §1

[2] = tested on: water seeded rice seedlings; experiment: Test E flooded paddy test; format: in vivo, Oryza sativa cv. ‘Japonica -M202’; details: Flood, after 21 days, scale 0 to 100
Description: as §1

[3] = tested on: transplanted rice seedlings; experiment: Test E flooded paddy test; format: in vivo, Oryza sativa cv. ‘Japonica-M202’; details: Flood, after 21 days, scale 0 to 100
Description: as §1

barnyardgrass = experiment: Test E flooded paddy test; format: in vivo, Echinochloa crus-galli; details: Flood, after 21 days, scale 0 to 100
Description: as §1

late watergrass = experiment: Test E flooded paddy test; format: in vivo, Echinochloa oryzicola; details: Flood, after 21 days, scale 0 to 100
Description: as §1

early watergrass = experiment: Test E flooded paddy test; format: in vivo, Echinochloa oryzoides; details: Flood, after 21 days, scale 0 to 100
Description: as §1

junglerice = experiment: Test E flooded paddy test; format: in vivo, Echinochloa colona; details: Flood, after 21 days, scale 0 to 100
Description: as §1

Redstem = experiment: Test C flooded paddy test; format: in vivo; details: Flood
Description: (§2) At time of treatment, test pots were flooded to 3 cm above the soil surface, treated by application of test compounds directly to the paddy water, and then maintained at that water depth for the duration of the test. Treated plants and controls were maintained in a greenhouse for 13 to 15 days, after which time all species were compared to controls and visually evaluated. […] A dash (-) response means no test result.

Ricefield Bulrush = experiment: Test C flooded paddy test; format: in vivo; details: Flood
Description: as §2

[4] = 125 g ai/ha, preemergence, scale 0 to 100
[5] = 500 g ai/ha, preemergence, scale 0 to 100
[6] = 250 g ai/ha, scale 0 to 100 (0 no effect, 100 complete control)
[7] = 250 g ai/ha, preemergence, scale 0 to 100
[8] = 31 g ai/ha, scale 0 to 100 (0 no effect, 100 complete control)
[9] = 62 g ai/ha, scale 0 to 100, 0 no effect, 100 complete control, 13 to 15 days
[10] = 125 g ai/ha, scale 0 to 100, 0 no effect, 100 complete control, 13 to 15 days

Cn1nc(C(F)(F)F)c(C[S+]([O-])c2cccc[n+]2[O-])c1OCC(F)(F)F (racemic) [Compound 28]
Plant response rating, Sugarcane (sugarcane; [4]): 17
Plant response rating, Sugarcane (sugarcane; [5]): 68

Cc1cc[n+]([O-])c([S+]([O-])Cc2c(C(F)(F)F)nn(C)c2OCC(F)(F)F)c1 (racemic) [Compound 30]
Sugarcane plant response rating (sugarcane; [6]): 33
Plant response rating, Sugarcane (sugarcane; [7]): 12

Cn1nc(C(F)(F)F)c(C[S+]([O-])c2cc(Br)cc[n+]2[O-])c1Cl (racemic) [Compound 35]
Plant response rating, Ducksalad (ducksalad; 16 g ai/ha): 0
Plant response rating, Ducksalad (ducksalad; 32 g ai/ha): 40
Plant response rating, Ducksalad (ducksalad; 64 g ai/ha): 50
Plant response rating, Ducksalad (ducksalad; 125 g ai/ha): 60
Plant response rating, Ducksalad (ducksalad; 250 g ai/ha): 100
Plant response rating, Sedge, Umbrella ([1]; 16 g ai/ha): 0
Plant response rating, Sedge, Umbrella ([1]; 32 g ai/ha): 45
Plant response rating, Sedge, Umbrella ([1]; 64 g ai/ha): 85
Plant response rating, Sedge, Umbrella ([1]; 125 g ai/ha): 85
Plant response rating, Sedge, Umbrella ([1]; 250 g ai/ha): 100
Plant response rating, Redstem (purple redstem; 16 g ai/ha): 0
Plant response rating, Redstem (purple redstem; 32 g ai/ha): 45
Plant response rating, Redstem (purple redstem; 64 g ai/ha): 85
Plant response rating, Redstem (purple redstem; 125 g ai/ha): 85
Plant response rating, Redstem (purple redstem; 250 g ai/ha): 100
Plant response rating, Flatsedge, Rice (rice flatsedge; 16 g ai/ha): 0
Plant response rating, Flatsedge, Rice (rice flatsedge; 32 g ai/ha): 30
Plant response rating, Flatsedge, Rice (rice flatsedge; 64 g ai/ha): 70
Plant response rating, Flatsedge, Rice (rice flatsedge; 125 g ai/ha): 80
Plant response rating, Flatsedge, Rice (rice flatsedge; 250 g ai/ha): 95
Plant response rating, Sprangletop, Brdd. (bearded sprangletop; 16 g ai/ha): 0
Plant response rating, Sprangletop, Brdd. (bearded sprangletop; 32 g ai/ha): 90
Plant response rating, Sprangletop, Brdd. (bearded sprangletop; 64 g ai/ha): 90
Plant response rating, Sprangletop, Brdd. (bearded sprangletop; 125 g ai/ha): 90
Plant response rating, Sprangletop, Brdd. (bearded sprangletop; 250 g ai/ha): 90
Plant response rating, Rice, Waterseeded ([2]; 16 g ai/ha): 0
Plant response rating, Rice, Waterseeded ([2]; 32 g ai/ha): 0
Plant response rating, Rice, Waterseeded ([2]; 64 g ai/ha): 0
Plant response rating, Rice, Waterseeded ([2]; 125 g ai/ha): 20
Plant response rating, Rice, Waterseeded ([2]; 250 g ai/ha): 30
Plant response rating, Rice, Transplanted ([3]; 16 g ai/ha): 0
Plant response rating, Rice, Transplanted ([3]; 32 g ai/ha): 0
Plant response rating, Rice, Transplanted ([3]; 64 g ai/ha): 0
Plant response rating, Rice, Transplanted ([3]; 125 g ai/ha): 15
Plant response rating, Rice, Transplanted ([3]; 250 g ai/ha): 15
Plant response rating, Barnyardgrass (barnyardgrass; 16 g ai/ha): 0
Plant response rating, Barnyardgrass (barnyardgrass; 32 g ai/ha): 0
Plant response rating, Barnyardgrass (barnyardgrass; 64 g ai/ha): 0
Plant response rating, Barnyardgrass (barnyardgrass; 125 g ai/ha): 0
Plant response rating, Barnyardgrass (barnyardgrass; 250 g ai/ha): 50
Plant response rating, Watergrass, Late (late watergrass; 16 g ai/ha): 0
Plant response rating, Watergrass, Late (late watergrass; 32 g ai/ha): 0
Plant response rating, Watergrass, Late (late watergrass; 64 g ai/ha): 0
Plant response rating, Watergrass, Late (late watergrass; 125 g ai/ha): 30
Plant response rating, Watergrass, Late (late watergrass; 250 g ai/ha): 60
Plant response rating, Watergrass, Early (early watergrass; 16 g ai/ha): 0
Plant response rating, Watergrass, Early (early watergrass; 32 g ai/ha): 0
Plant response rating, Watergrass, Early (early watergrass; 64 g ai/ha): 0
Plant response rating, Watergrass, Early (early watergrass; 125 g ai/ha): 20
Plant response rating, Watergrass, Early (early watergrass; 250 g ai/ha): 40
Plant response rating, Junglerice (junglerice; 16 g ai/ha): 0
Plant response rating, Junglerice (junglerice; 32 g ai/ha): 0
Plant response rating, Junglerice (junglerice; 64 g ai/ha): 0
Plant response rating, Junglerice (junglerice; 125 g ai/ha): 0
Plant response rating, Junglerice (junglerice; 250 g ai/ha): 40

Cc1cc[n+]([O-])c([S+]([O-])Cc2c(C(F)(F)F)nn(C)c2OC(F)F)c1 (stereo not drawn) [Compound 1]
Plant response rating, Redstem (Redstem; [8]): 40
Plant response rating, Redstem (Redstem; [9]): 60
Plant response rating, Redstem (Redstem; [10]): 80
Plant response rating, Redstem (Redstem; [6]): 85
Plant response rating, Ricefield Bulrush (Ricefield Bulrush; [8]): 75
Plant response rating, Ricefield Bulrush (Ricefield Bulrush; [9]): 75
Plant response rating, Ricefield Bulrush (Ricefield Bulrush; [10]): 75
Plant response rating, Ricefield Bulrush (Ricefield Bulrush; [6]): 85

Cc1cc[n+]([O-])c(S(=O)(=O)Cc2c(C(F)(F)F)nn(C)c2OC(F)F)c1 [Compound 2]
Plant response rating, Sugarcane (sugarcane; [4]): 70
Plant response rating, Sugarcane (sugarcane; [5]): 83
Plant response rating, Redstem (Redstem; [8]): 0
Plant response rating, Redstem (Redstem; [9]): 30
Plant response rating, Redstem (Redstem; [10]): 65
Plant response rating, Redstem (Redstem; [6]): 85
Plant response rating, Ricefield Bulrush (Ricefield Bulrush; [8]): 20
Plant response rating, Ricefield Bulrush (Ricefield Bulrush; [9]): 20
Plant response rating, Ricefield Bulrush (Ricefield Bulrush; [10]): 45
Plant response rating, Ricefield Bulrush (Ricefield Bulrush; [6]): 80

Cn1nc(C(F)(F)F)c(C[S+]([O-])c2cccc[n+]2[O-])c1OC(F)F (stereo not drawn) [Compound 3]
Plant response rating, Sugarcane (sugarcane; 62 g ai/ha, Preemergence, scale 0 to 100): 17
Sugarcane plant response rating (sugarcane; 62 g ai/ha, scale 0 to 100): 32
Sugarcane plant response rating (sugarcane; [6]): 50
Plant response rating, Sugarcane (sugarcane; [7]): 50
Plant response rating, Redstem (Redstem; [8]): 20
Plant response rating, Redstem (Redstem; [9]): 40
Plant response rating, Redstem (Redstem; [10]): 45
Plant response rating, Redstem (Redstem; [6]): 85
Plant response rating, Ricefield Bulrush (Ricefield Bulrush; [8]): 55
Plant response rating, Ricefield Bulrush (Ricefield Bulrush; [9]): 55
Plant response rating, Ricefield Bulrush (Ricefield Bulrush; [10]): 75
Plant response rating, Ricefield Bulrush (Ricefield Bulrush; [6]): 80

Cn1nc(C(F)(F)F)c(CS(=O)(=O)c2cccc[n+]2[O-])c1OC(F)F [Compound 4]
Plant response rating, Redstem (Redstem; [8]): 40
Plant response rating, Redstem (Redstem; [9]): 55
Plant response rating, Redstem (Redstem; [10]): 85
Plant response rating, Redstem (Redstem; [6]): 80
Plant response rating, Ricefield Bulrush (Ricefield Bulrush; [8]): 0
Plant response rating, Ricefield Bulrush (Ricefield Bulrush; [9]): 0
Plant response rating, Ricefield Bulrush (Ricefield Bulrush; [10]): 60
Plant response rating, Ricefield Bulrush (Ricefield Bulrush; [6]): 80

CC(c1c(C(F)(F)F)nn(C)c1OC(F)F)S(=O)(=O)c1cccc[n+]1[O-] (stereo not drawn) [Compound 5]
Sugarcane plant response rating (sugarcane; 62 g ai/ha, scale 0 to 100): 0
Sugarcane plant response rating (sugarcane; [6]): 7
Plant response rating, Sugarcane (sugarcane; [7]): 7
Plant response rating, Redstem (Redstem; [8]): 40
Plant response rating, Redstem (Redstem; [9]): 80
Plant response rating, Redstem (Redstem; [10]): 80
Plant response rating, Redstem (Redstem; [6]): 80
Plant response rating, Ricefield Bulrush (Ricefield Bulrush; [8]): 0
Plant response rating, Ricefield Bulrush (Ricefield Bulrush; [9]): 45
Plant response rating, Ricefield Bulrush (Ricefield Bulrush; [10]): 80
Plant response rating, Ricefield Bulrush (Ricefield Bulrush; [6]): 85

From patent publication US20100298141A1, “SUBSTITUTED PYRIDINE N-OXIDE HERBICIDES” (E. I. DU PONT DE NEMOURS AND COMPANY, priority 2007, published 2010)
